Results from US8084457B2, “Pharmaceutically active 4,6-disubstituted aminopyrimidine derivatives as modulators of protein kinases” (Lead Discovery Center GmbH, priority 2003, dated 2011).

Columns and labels:
[1] = system: PDGFR; experiment: General kinase assay, selectivity panel: PDGFR; format: biochemical; conditions: 10 μM of compound, in comparison to DMSO (0% inhibition)
Summary of the method: (§1)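 Substrate plus ATP in reaction buffer is mixed with compound, [γ-33P]ATP and kinase, then incubated 1 hr at room temperature. The reaction is terminated with EDTA, transferred to filter plates, washed with 0.75% H3PO4 and counted. Activity is given as % inhibition at 10 μM against DMSO.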

[2] = system: protein kinases of PM1 cell lysates; experiment: Affinity chromatography with immobilised compound, PM1 cell lysate, mass spectrometry: additional targets; format: binding
Description: (§2) Affinity Chromatography Experiments:
(§3) Coupling to epoxy-groups: 500 μl drained epoxy-activated Sepharose 6B (Amersham Biosciences) equilibrated to 50% DMF/0.1M Na2CO3 were resuspended in 1 ml 20 mM Compound 102 or 20 mM Compound 103, respectively, dissolved in 50% DMF (Dimethylfomamid)/0.1 M Na2CO3. 5 μl 10M NaOH was added followed by incubation overnight at 30° C. with permanent shaking in the dark. After washing three times in 1 ml 50% DMF/0.1M Na2CO3 the beads were incubated in 1 ml 1M ethanolamine for 6 h at 30° C. with permanent shaking in the dark followed by the denoted washing steps: 50% DMF/0.1M Na2CO3, then H2O, then 0.1M NaHCO3 pH 8.0/0.5M NaCl followed by 0.1M NaAc pH 4.0/0.1M NaCl and finally three times in chromatography buffer (see below) containing 150 mM NaCl. As control matrix epoxy-activated Sepharose 6B was incubated with 1M ethanolamine and equally treated as described above. The beads were stored in 20% ethanol at 4° C. in the dark.
Carbodiimide coupling: ECH-Sepharose 4B (Amersham Biosciences) was washed according to the manufacturer's instructions and equilibrated to 50% DMF/50% ethanol. 2.5 ml drained beads were resuspended in 5 ml 15 mM Compound 102 or Compound 103, respectively, dissolved in 50% DMF/50% ethanol followed by drop by drop addition of 750 μl 1M 1-ethyl-3-(3-dimethylaminopropyl) carbodiimide hydrochloride (EDC), dissolved in 50% DMF/50% ethanol. The suspension was incubated overnight at room temperature with permanent end-over-end rotation and washed three times with 15 ml 50% DMF/50% ethanol prior to the addition of 5 ml 33% DMF/33% ethanol/34% 1M ethanolamine pH 8.0 and 650 μl EDC. After 2 h incubation at room temperature with permanent end-over-end rotation, beads were washed three times with 15 ml 50% DMF/50% ethanol, twice with 15 ml 0.5M NaCl and once with 15 ml 20% ethanol. Control beads were incubated with 5 ml 1M ethanolamine instead of compound and treated equally as described above. The beads were stored in 20% ethanol at 4° C. in the dark.
Affinity Chromatography and Preparative Gel Electrophoresis.
1.25×10^9 PM1 cells were lysed in 15 ml buffer containing 50 mM HEPES pH 7.5, 400 mM NaCl, 0.5% Triton X-100, 1 mM EDTA, 1 mM EGTA, 3 mM MgCl2, 1 mM DTT plus additives (10 mM sodium fluoride, 1 mM orthovanadate, 10 μg/ml aprotinin, 10 μg/ml leupeptin, 1 mM PMSF), cleared by centrifugation and adjusted to 1M NaCl. The filtered lysate was loaded with a flow rate of 100 μl/min on a […] chromatography column containing 500 μl Compound 102 or Compound 103 matrix, respectively, equilibrated to chromatography buffer (20 mM HEPES pH 7.5, 0.25% Triton X-100, 1 mM EDTA, 1 mM EGTA) containing 1M NaCl. […]

[3] = biological target: T1, CDK9 (Homo sapiens, UniProt P50750); experiment: Affinity chromatography with immobilised compound, PM1 cell lysate, mass spectrometry: CDK9; format: binding; conditions: compound coupled to ECH-Sepharose
T1 construct: endogenous in cells; host or cells: PM1 cells (lysate)
T1 sequence (P50750 whole entry): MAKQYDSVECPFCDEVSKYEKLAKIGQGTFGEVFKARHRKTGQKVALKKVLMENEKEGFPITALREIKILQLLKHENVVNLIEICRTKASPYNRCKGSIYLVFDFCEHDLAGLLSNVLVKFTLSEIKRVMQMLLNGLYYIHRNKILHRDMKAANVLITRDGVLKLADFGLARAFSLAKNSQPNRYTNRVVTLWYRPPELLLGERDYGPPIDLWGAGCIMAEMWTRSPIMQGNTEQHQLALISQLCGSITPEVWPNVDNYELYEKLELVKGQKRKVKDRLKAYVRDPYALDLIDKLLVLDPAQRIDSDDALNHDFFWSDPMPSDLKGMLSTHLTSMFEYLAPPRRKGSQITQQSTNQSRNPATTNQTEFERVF
Description: as §2, §3
Carbodiimide coupling: ECH-Sepharose 4B (Amersham Biosciences) was washed according to the manufacturer's instructions and equilibrated to 50% DMF/50% ethanol. 2.5 ml drained beads were resuspended in 5 ml 15 mM Compound 102 or Compound 103, respectively, dissolved in 50% DMF/50% ethanol followed by drop by drop addition of 750 μl 1M 1-ethyl-3-(3-dimethylaminopropyl) carbodiimide hydrochloride (EDC), dissolved in 50% DMF/50% ethanol. […]

[4] = biological target: CDK1 (Homo sapiens, UniProt P06493); experiment: General kinase assay, selectivity panel: CDK1; format: biochemical; conditions: 10 μM of compound, in comparison to DMSO (0% inhibition)
CDK1, sequence (P06493 whole entry, species assumed): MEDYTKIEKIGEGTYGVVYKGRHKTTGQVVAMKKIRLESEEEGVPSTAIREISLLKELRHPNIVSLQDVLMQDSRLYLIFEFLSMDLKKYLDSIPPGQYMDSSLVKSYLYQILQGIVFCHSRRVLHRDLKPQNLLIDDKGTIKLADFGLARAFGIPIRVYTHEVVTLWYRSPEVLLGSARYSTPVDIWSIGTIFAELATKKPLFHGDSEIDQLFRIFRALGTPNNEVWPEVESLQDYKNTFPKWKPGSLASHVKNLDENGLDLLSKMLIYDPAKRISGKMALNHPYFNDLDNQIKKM
CDK1, sequence (P14635 whole entry partner, species assumed): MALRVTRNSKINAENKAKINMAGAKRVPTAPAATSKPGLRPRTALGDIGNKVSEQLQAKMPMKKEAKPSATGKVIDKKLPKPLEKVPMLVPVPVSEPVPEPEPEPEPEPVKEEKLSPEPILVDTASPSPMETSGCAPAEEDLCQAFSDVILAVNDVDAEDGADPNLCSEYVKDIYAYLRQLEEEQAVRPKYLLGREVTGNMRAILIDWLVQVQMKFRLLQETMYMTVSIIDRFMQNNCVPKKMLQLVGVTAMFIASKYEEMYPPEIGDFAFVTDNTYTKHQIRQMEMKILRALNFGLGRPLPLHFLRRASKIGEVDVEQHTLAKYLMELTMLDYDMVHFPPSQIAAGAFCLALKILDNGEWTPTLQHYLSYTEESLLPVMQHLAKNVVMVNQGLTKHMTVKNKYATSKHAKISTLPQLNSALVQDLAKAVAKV
Summary of the method: as §1

[5] = biological target: EGFR (Homo sapiens, UniProt P00533); experiment: General kinase assay, selectivity panel: EGFR; format: biochemical; conditions: 10 μM of compound, in comparison to DMSO (0% inhibition)
EGFR, sequence (P00533 25-1210, species assumed): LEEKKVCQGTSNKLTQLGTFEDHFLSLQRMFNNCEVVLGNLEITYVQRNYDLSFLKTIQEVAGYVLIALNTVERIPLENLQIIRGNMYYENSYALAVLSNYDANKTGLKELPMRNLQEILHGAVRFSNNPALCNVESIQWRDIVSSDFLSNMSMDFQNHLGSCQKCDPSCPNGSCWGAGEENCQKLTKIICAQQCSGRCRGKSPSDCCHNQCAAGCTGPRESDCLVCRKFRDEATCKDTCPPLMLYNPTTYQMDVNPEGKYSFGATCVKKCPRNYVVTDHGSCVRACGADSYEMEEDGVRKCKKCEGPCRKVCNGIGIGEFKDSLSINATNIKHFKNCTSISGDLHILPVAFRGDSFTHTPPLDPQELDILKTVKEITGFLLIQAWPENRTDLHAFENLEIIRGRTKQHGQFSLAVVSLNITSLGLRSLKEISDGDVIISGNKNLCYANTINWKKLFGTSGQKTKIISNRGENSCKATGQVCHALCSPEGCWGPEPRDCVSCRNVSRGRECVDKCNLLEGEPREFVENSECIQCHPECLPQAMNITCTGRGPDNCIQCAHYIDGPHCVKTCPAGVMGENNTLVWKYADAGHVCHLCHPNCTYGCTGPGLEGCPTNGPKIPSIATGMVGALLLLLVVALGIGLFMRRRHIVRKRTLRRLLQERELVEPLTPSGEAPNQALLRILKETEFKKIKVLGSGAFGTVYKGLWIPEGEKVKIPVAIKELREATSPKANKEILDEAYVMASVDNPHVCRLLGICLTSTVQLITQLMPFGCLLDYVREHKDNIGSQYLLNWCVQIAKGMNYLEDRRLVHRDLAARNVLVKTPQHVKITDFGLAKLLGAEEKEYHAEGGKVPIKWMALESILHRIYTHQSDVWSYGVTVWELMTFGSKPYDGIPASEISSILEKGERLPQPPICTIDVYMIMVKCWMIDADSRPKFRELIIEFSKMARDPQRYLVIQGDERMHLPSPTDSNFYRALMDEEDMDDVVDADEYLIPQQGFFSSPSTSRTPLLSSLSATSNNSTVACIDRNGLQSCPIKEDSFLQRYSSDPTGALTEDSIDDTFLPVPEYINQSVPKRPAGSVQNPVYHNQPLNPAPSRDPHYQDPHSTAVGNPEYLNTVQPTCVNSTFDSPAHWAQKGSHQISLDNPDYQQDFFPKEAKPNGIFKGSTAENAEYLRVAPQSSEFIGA
Summary of the method: as §1

[6] = biological target: GSK-3β (Homo sapiens, UniProt P49841); experiment: General kinase assay, selectivity panel: GSK-3β; format: biochemical; conditions: 10 μM of compound, in comparison to DMSO (0% inhibition)
GSK-3β, sequence (P49841 whole entry, species assumed): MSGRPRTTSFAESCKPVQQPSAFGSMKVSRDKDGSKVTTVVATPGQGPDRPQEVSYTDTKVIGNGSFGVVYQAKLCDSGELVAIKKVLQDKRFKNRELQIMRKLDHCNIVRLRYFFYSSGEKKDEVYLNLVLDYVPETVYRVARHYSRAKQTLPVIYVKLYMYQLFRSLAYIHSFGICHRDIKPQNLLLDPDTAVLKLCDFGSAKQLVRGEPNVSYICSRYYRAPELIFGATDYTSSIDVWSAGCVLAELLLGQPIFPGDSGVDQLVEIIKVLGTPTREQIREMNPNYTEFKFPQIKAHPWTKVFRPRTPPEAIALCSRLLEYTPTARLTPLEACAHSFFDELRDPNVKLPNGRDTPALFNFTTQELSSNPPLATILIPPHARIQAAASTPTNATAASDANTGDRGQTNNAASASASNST
Summary of the method: as §1

[7] = biological target: T2, CDK5/p35 (Homo sapiens, UniProt Q00535); experiment: Kinase assay determining CDK5/p35 activity (selectivity panel); format: biochemical; conditions: 10 μM of compound, in comparison to DMSO (0% inhibition)
T2 construct: purchased Upsate (Upstate)
T2 sequence (Q00535 whole entry): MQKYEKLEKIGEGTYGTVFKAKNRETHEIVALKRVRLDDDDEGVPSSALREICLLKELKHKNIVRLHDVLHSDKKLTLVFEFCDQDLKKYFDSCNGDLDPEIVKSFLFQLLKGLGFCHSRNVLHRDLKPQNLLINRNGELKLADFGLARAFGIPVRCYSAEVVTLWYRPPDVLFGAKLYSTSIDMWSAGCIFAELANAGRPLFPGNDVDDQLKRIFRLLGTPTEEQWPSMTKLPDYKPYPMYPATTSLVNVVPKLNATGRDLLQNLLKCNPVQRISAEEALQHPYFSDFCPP
T2 sequence (Q15078 whole entry partner): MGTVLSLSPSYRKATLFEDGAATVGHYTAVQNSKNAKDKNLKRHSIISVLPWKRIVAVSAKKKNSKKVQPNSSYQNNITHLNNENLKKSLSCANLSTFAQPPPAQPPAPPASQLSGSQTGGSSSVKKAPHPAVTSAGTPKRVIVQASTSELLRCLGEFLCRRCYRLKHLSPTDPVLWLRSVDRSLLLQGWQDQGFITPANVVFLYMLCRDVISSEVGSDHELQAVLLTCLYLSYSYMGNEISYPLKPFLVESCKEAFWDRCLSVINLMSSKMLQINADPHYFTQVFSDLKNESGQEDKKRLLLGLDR
Description: Kinase Assays Determining CDK2/CyclinA and CDK5/p35 Activity:
Kinase assays were performed as described by the manufacturers recommendations (Proqinase for CDK2/CyclinA and Upsate for CDK5/p35).
The activity of these protein kinases is depicted as % inhibition in the presence of 10 μM of compound in comparison to DMSO (0% inhibition).

[8] = system: NFκB-dependent transcriptional activity; experiment: NFκB-dependent transcriptional activity (NIH 3T3 75E 11/300D8 cell line); format: cell-based
From the text: NFκB-dependent Transcriptional Activity:
The used NIH 3T3 75E 11/300D8 cell line is described elsewhere (J. Eickhoff et al., Journal of Biological Chemistry, 2004, 279(10), 9642-9652).
It is known, that CDK9 regulates the NFκB-dependent transitional activity. With Compound 4, Compound 7 and Compound 30 studies were done, to evaluate their effect on NFκB-dependent transcriptional activity.

[9] = system: HepG2-2.2.15-cells; format: cell-based
Description: The fixed membrane was pre-hybridized in a standard hybridisation buffer (50% formamide, 5×SSPE, 10×Denhards, 1% SDS, 100 μg/ml salmon sperm DNA) for at least 3 hours at 42° C. and hybridised overnight against the labelled HBV-fragment. The preparation of the HBV-fragment with the “Random primers DNA labelling system” (Invitrogen) was done according to the manufacturer's instructions. Hybridized filter were washed at room temperature with 2×SSC, at 62° C. with 2×SSC, 0.5% SDS and at 62° C. with 0.5×SSC, 0.5% SDS. Each washing step was carried out twice. The intensity of the HBV-DNA was quantified using a phosphoimager (Fuji). To test the cell viability 0.5×10^4 HepG2-2.2.15-cells were seeded in 96-well-microtiter plates in DMEM medium supplemented with 10% fetal bovine serum. After incubation at 37° C. for 24 hours the medium was replaced by fresh compound-containing medium. 3 days later medium was replaced again by freshly prepared medium containing the inhibitor and the cells were incubated for further 3 days at 37° C. After the incubation period 1/10 volume of Alamar Blue (Serotec) solution containing a growth dependant indicator was added and the cells were incubated for 3 h at 37° C. Absorbance was monitored at 570 nm and 600 nm wavelength.

[10] = system: HBV; experiment: HBV replication assay in HepG2-2.2.15 cells; format: cell-based
Description: To test anti—HBV-activity of compounds the HBV-producing cell line HepG2-2.2.15 (M. A. Sells, PNAS 1987, 84, 1005-1009) was used. 1.0×10^4 cells were seeded in 96-well microtiter plates in DMEM medium supplemented with 10% FCS. After incubation at 37° C. in 5% CO2 atmosphere for 24 hours the medium was replaced with fresh medium containing the appropriately diluted compound. 3 days later medium was replaced by freshly prepared inhibitor-containing medium and the cells were incubated for further 3 days. Subsequently 200 μl lysis buffer (50 mM Tris-Cl 7.5; 1 mM EDTA 8.0; 0.5% NP40) per well was added. To remove cell debris and […], lysate was centrifuged (15000 rpm, 10 min, 4° C.). Cellular and viral RNA was removed by addition of 2 μl of RNase. 100 μl of the samples were spotted onto an uncharged nylon membrane pre-wetted with PBS (phosphate-buffered saline) using a 96 well-blotting chamber (MINIfold Dot-Blot, Schleicher&Schüll). After further washing with 200 μl PBS per well the membrane was treated twice with 0.5 M NaOH, 1.5 M NaCl (2 min) and 4 times with 0.5 M Tris 7.5, 3 M NaCl (1 min). The nucleic acids were fixed by UV-treatment and used for hybridisabon with a radioactive HBV-fragment prepared from the overgenome-length HBV-plasmid pT-HBV1.3 (L. G. Guidotti et al., Journal of Virology 1995., 69(10), 6158-6169).
The fixed membrane was pre-hybridized in a standard hybridisation buffer (50% formamide, 5×SSPE, 10×Denhards, 1% SDS, 100 μg/ml salmon sperm DNA) for at least 3 hours at 42° C. and hybridised overnight against the labelled HBV-fragment. The preparation of the HBV-fragment with the “Random primers DNA labelling system” (Invitrogen) was done according to the manufacturer's instructions. Hybridized filter were washed at room temperature with 2×SSC, at 62° C. with 2×SSC, 0.5% SDS and at 62° C. with 0.5×SSC, 0.5% SDS. Each washing step was carried out twice. The intensity of the HBV-DNA was quantified using a phosphoimager (Fuji). […] Absorbance was monitored at 570 nm and 600 nm wavelength.

[11] = biological target: Abl (Homo sapiens, UniProt P00519); experiment: General kinase assay, selectivity panel: Abl; format: biochemical; conditions: 10 μM of compound, in comparison to DMSO (0% inhibition)
Abl, sequence (P00519 whole entry, species assumed): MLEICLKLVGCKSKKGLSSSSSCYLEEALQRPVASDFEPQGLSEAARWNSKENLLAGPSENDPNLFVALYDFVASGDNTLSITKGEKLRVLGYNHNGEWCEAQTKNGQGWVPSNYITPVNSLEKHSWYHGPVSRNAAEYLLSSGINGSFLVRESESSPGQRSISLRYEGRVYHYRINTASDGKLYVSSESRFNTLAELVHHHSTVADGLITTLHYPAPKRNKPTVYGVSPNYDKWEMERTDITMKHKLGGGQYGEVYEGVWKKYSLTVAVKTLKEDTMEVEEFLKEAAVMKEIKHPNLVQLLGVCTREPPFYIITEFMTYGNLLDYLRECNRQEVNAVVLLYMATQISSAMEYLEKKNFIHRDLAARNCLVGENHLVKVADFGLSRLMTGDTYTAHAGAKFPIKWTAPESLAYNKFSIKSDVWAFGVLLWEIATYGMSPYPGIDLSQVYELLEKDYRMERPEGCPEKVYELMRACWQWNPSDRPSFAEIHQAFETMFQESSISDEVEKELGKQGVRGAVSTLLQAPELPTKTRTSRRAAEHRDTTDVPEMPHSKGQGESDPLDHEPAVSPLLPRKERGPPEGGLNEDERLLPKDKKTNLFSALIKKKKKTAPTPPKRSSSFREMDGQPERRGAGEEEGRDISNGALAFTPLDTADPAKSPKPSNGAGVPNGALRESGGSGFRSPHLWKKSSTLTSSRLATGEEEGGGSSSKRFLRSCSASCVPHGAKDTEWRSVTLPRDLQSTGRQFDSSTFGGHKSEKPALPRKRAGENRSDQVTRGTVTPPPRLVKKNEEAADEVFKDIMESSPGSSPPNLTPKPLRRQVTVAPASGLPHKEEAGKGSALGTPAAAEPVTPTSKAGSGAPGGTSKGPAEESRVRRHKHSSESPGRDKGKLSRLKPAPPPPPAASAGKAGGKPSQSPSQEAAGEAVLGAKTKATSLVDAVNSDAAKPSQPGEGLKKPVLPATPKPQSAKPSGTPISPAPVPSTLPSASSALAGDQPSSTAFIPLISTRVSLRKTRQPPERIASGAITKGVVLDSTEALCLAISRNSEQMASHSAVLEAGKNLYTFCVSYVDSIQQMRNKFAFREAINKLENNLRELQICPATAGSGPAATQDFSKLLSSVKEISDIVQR
Summary of the method: as §1

[12] = compound coupled to ECH-Sepharose, mass spectrometry

Compound | PDGFR (% inhibition) [1] | protein kinases in eluates: CaMK2β, GSK3α, CDK2, CrkRS, receptor similar to FGFR-3 ([2]; LCMS analysis of eluates) | additional targets bound: GSK3β, c-Src tyrosine kinase (CSK) [2, 12] | isolation of CDK9 out of crude PM1 cell lysates by affinity medium [3] | inhibition at 10 µM [4] [%] | inhibition at 10 µM [5] [%] | inhibition at 10 µM [6] [%] | inhibition at 10 µM [7] [%] | inhibition of NFκB (in words, compared with Compound 30) [8] | viability of the cells in the HBV replication assay [9] | HBV replication (in words) [10] | protein kinases in eluates: CaMK2β, MLK (MRK-alpha), yes, cdc2-like protein kinase (CDC2L5), CrkRS, MAK ([2]; LCMS analysis of eluates) | additional targets bound: CaMK2γ, CaMK2δ, CDK2, MRK-beta (ZAK) [2, 12] | inhibition at 10 µM [11] [%]
NCCCOc1ccccc1-c1cc(Nc2ccc(NC(=O)c3ccc(N)cc3)cc2)ncn1 [Compound 103, 4-Amino-N-(4-{6-[2-(3-amino-propoxy)phenyl]-pyrimidin-4-ylamino}-phenyl)-benzamide] | c (inhibition between 50 and 30%: c) | detected | specifically bound | able to isolate CDK9 | 50 to 80 | > 80 | 50 to 80 | 50 to 80 | – | – | – | – | – | –
c1ccc(COc2ccccc2-c2cc(NCCc3ccncc3)ncn2)cc1 [Compound 7] | – | – | – | – | – | – | – | – | less effectively | without affecting viability | inhibited replication | – | – | –
COc1ccccc1-c1cc(Nc2ccc(NC(=O)CCN)cc2)ncn1 [Compound 102, 3-Amino-N-{4-[6-(2-methoxy-phenyl)-pyrimidin-4-ylamino]-phenyl}-propionamide] | b (inhibition between 80 and 50%: b) | – | – | able to isolate CDK9 | 50 to 80 | > 80 | – | > 80 | – | – | – | identified | specifically bound | 30 to 50
